Assay results from patent US20240376085A1 (Janssen Pharmaceutica NV, priority 2021, published 2024).

Key:
IL-17A : IL-17RA binding [1] = biological target: T1, IL-17A : IL-17RA binding (Homo sapiens, UniProt Q16552, K93Q); test: IL-17A(FLAG-tagged):IL-17RA(His-tagged) binding disruption Eu-HTRF assay, Protocol 1; settings: FLAG-IL-17A 2.5 nM at 2x final concentration; average if tested more than once
T1 construct: Name: IL-17A-Flag
Outline: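 IC50 came from a one-site competition fit of the acceptor/donor (665/620 nm) HTRF ratio. His-tagged IL-17RA, Eu-anti-FLAG and D2-anti-His were added after a 1 h rt compound preincubation with FLAG-tagged IL-17A dimer in PBS/0.01% Triton X-100, followed by 2 h at rt before reading.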

IL-17A : IL-17RA binding [2] = biological target: T1, IL-17A : IL-17RA binding; test: IL-17A(FLAG-tagged):IL-17RA(His-tagged) binding disruption Eu-HTRF assay, Protocol 2; settings: FLAG-IL-17A 1 nM at 2x final concentration; average if tested more than once
Excerpt: An antibody directed against the FLAG tag of IL-17A (SEQ ID NO: 1) is labeled with the HTRF donor chromophore (Europium-cryptate). IL-17A is present as a dimer that is “locked into” this quaternary structure due to the formation of loop-spanning […] disulfide bridges. The construct of IL-17RA used in the assay excludes the […] portion of the receptor and is fused to a C-terminal 10×His tag (SEQ ID NO:2). An antibody directed against the His tag of the IL-17RA chimera is labeled with the HTRF acceptor chromophore (“D2”). The fluorescence-resonance energy transfer (FRET) depends on the vicinity of the donor chromophore to the acceptor, and interruption of the binding between the IL-17A and IL-17RA causes the reduction/loss of FRET. Therefore, this assay allows to evaluate the compound effect on the binding IL-17A and IL-17RA by monitoring the fluorescence intensity of donor vs acceptor. The assay was run using either Protocol 1 or Protocol 2 as described below.
Protocol 2. 40 nl of 2-fold serial diluted compound solution for total 22 dilution points is added into each well of a 1536-well, white, low-volume, non-binding plate (Greiner #782904), then 2 μl of FLAG tagged IL-17A at 2× final concentration (1 nM) in solution of PBS+0.01% Triton-X100 is added to each well. The assay plate is briefly centrifuged then incubated for 1 h at rt. A mixed solution is prepared containing 2×5 nM 10HIS×IL-17RA, 2×2.5 nM Eu-anti-FLAG (CISBIO), 2×5 nM D2-anti-HIS (CISBIO) in PBS+0.01% Triton-X100+200 mM Potassium Fluoride (Sigma 60238) and 2 μl of mix is added to each well of the assay plate. The plate is briefly centrifuged then incubated for 2 h at rt. The HTRF intensities at the wavelength of donor (615 nm) and acceptor (665 nm) are measured using BMG Pherastar. The ratio between intensities at two wavelengths is calculated and plotted against the compound concentration and the data is fitted to a one-site competition model to yield IC50 of the compound.

[3] = test system: IL-17A-induced G-CSF production in human normal keratinocyte (NHK); test: NHK assay: IL-17A-induced G-CSF production in normal human keratinocytes; format: cell-based; settings: Homo sapiens, Keratinocyte, 24 h, IL-17A 5 ng/mL, average if tested more than once
Outline: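 IC50 derives from G-CSF in supernatants, quantified by HTRF from a standard curve, with CellTiter-Glo viability compared to DMSO control. Before a 24 h, 37°C culture of normal human keratinocytes at 3000–4000 cells/well, compound dilutions were preincubated 1 h at rt with human IL-17A (5 ng/mL final), with 0.2% DMSO and 5% FBS.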

T1 sequence (Q16552 with tags, fused parts or gaps K93Q): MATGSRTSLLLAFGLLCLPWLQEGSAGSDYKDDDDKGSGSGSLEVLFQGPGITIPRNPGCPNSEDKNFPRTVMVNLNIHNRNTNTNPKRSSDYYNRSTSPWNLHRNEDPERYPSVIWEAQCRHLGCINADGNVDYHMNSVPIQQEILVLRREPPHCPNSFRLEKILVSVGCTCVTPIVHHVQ

Compound | IC50 (IL-17A : IL-17RA binding [1]) [nM] | IC50 (IL-17A : IL-17RA binding [2]) [nM] | IC50 [3] [nM]
C[C@@H](NC(=O)CC1CC(F)(F)C1)c1ccc2nc(C(COC(C)(C)C(F)(F)F)NC(=O)c3nonc3C3CC3)[nH]c2c1 (single isomer, unassigned) [Example 152, 4-Cyclopropyl-N—((R*)-1-(6-((R)-1-(2-(3,3-difluorocyclobutyl)acetamido)ethyl)-1H-benzo[d]imidazol-2-yl)-2-((1,1,1-trifluoro-2-methylpropan-2-yl)oxy)ethyl)-1,2,5-oxadiazole-3-carboxamide] | < 50 | < 50 | < 50
CC(C)n1nccc1C(=O)N[C@H](c1nc2ccc([C@@H](C)NC(=O)CCC(F)(F)F)cc2[nH]1)C1CCC(F)(F)CC1 [Example 122, N—((S)-(4,4-Difluorocyclohexyl)(6-((R)-1-(4,4,4-trifluorobutanamido)ethyl)-1H-benzo[d]imidazol-2-yl)methyl)-1-isopropyl-1H-pyrazole-5-carboxamide] | > 100 | > 100 | < 50
